{
  "source": "patent US9846168B2",
  "about": "“Fluorescent metal ion indicators with large stokes shifts” (LIFE TECHNOLOGIES CORPORATION, priority 2004, dated 2017)",
  "key": {"[1]": {"test": "Absorption and fluorescence emission spectra of calcium binding compounds", "assay_type": "physicochemical", "details": "for λem (nm): emission maximum, excited at wavelength of maximum absorption, Ca++ buffers 0-39 μM; for λex (nm): wavelength of maximum absorption, 39 μM Ca++ buffer, 100 mM KCl, 30 mM MOPS pH7.2 (Compounds 5, 10, 13), Zero Ca++ buffer (Compound 18), npH2O (Compound 21)", "procedure": "(§1) In all cases, samples were dissolved in nanopure(np)-H2O at concentrations of approximately 1 mg/mL, except Compound 18 which was dissolved in 1:1 DMSO:npH2O. Non-quantitative aliquots of these solutions were added to approximately 3 mL of 39 μM Ca++ buffer, 100 mM KCl, 30 mM MOPS (pH7.2) (Compounds 5, 10, 13), Zero Ca++ buffer, 100 mM KCl, 30 mM MOPS (pH7.2) (Compound 18), or npH2O (Compound 21). Absorption spectra were obtained using a Perkin Elmer UV/Vis Spectrometer (Lambda 35 or 40). Fluorescence samples were prepared by pipetting aliquots of respective stock solutions to a series of disposable cuvettes containing 2 mL of Ca++ buffers from Calcium Calibration Buffer Kit #2 (Invitrogen cat.#3009) (0-39 μM). The final concentration of compound ranged from approximately 0.1-4 μM. Samples were excited at their wavelength of maximum absorption and spectra were obtained using a Perkin Elmer Luminescence Spectrometer (LS50B, LS55). Emission intensities were recorded at the respective maxima and Kd values calculated."}, "[2]": {"test": "Calcium binding: fluorescence titration in Ca++ buffers (0-39 μM), Kd calculated", "details": "fluorescence change on calcium binding", "procedure": "as §1"}},
  "data": [
    {"smiles": "Cc1ccc(N(CC(=O)[O-])CC(=O)[O-])c(OCCOc2cc(CNS(=O)(=O)c3cccc4c(N(C)C)cccc34)ccc2N(CC(=O)[O-])CC(=O)[O-])c1.[K+].[K+].[K+].[K+]", "note": "[Compound 5]", "values": [
      {"measurement": "λem (nm)", "setting": "[1]", "result": 549, "unit": "nm"},
      {"measurement": "λex (nm)", "setting": "[1]", "result": 331, "unit": "nm"},
      {"measurement": "ΔF = Fb/Fo", "setting": "[2]", "result": 3}
    ]},
    {"smiles": "Cc1ccc(N(CC(=O)[O-])CC(=O)[O-])c(OCCOc2cc(CN3C(=O)c4cccc5c(N)ccc(c45)C3=O)ccc2N(CC(=O)[O-])CC(=O)[O-])c1.[K+].[K+].[K+].[K+]", "note": "[Compound 13]", "values": [
      {"measurement": "λem (nm)", "setting": "[1]", "result": 550, "unit": "nm"},
      {"measurement": "λex (nm)", "setting": "[1]", "result": 432, "unit": "nm"},
      {"measurement": "ΔF = Fb/Fo", "setting": "[2]", "result": 12}
    ]},
    {"smiles": "Cc1ccc(N(CC(=O)[O-])CC(=O)[O-])c(OCCOc2cc(CNC(=O)c3c4oc5cc(O)ccc5nc-4ccc3=O)ccc2N(CC(=O)[O-])CC(=O)[O-])c1.[Li+].[Li+].[Li+].[Li+]", "note": "[Compound 18]", "values": [
      {"measurement": "λem (nm)", "setting": "[1]", "result": 589, "unit": "nm"},
      {"measurement": "λex (nm)", "setting": "[1]", "result": 550, "unit": "nm"},
      {"measurement": "ΔF = Fb/Fo", "setting": "[2]", "result": 5}
    ]},
    {"smiles": "Cc1ccc(N(CC(=O)[O-])CC(=O)[O-])c(OCCOc2cc(CNC(=O)c3cc(=O)cc4oc5cc(N(C)C)ccc5nc3-4)ccc2N(CC(=O)[O-])CC(=O)[O-])c1.[Li+].[Li+].[Li+].[Li+]", "note": "[Compound 21]", "values": [
      {"measurement": "λem (nm)", "setting": "[1]", "result": 641, "unit": "nm"},
      {"measurement": "λex (nm)", "setting": "[1]", "result": 612, "unit": "nm"},
      {"measurement": "ΔF = Fb/Fo", "setting": "[2]", "result": 11}
    ]}
  ]
}
